Results reported in BigSolDB 2.1.

O=c1cc(-c2ccccc2)oc2cc(O)cc(O)c12
solubility (mole fraction)
Conditions | 293.15 K | 298.15 K | 303.15 K | 308.15 K | 313.15 K | 318.15 K | 323.15 K
in ethanol | 0.00689 | 0.00749 | 0.0078 | 0.00928 | 0.0108 | 0.0121 | 0.0137
in water | 1.26e-05 | 1.86e-05 | 2.38e-05 | 3.53e-05 | 4.61e-05 | 6.5e-05 | 0.0001
